Source: PubChem BioAssay (NCI)
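Cultured in 96-well plates, cells were exposed to test compound for 48 hours across five concentrations. GI50 marks 50% less growth. TGI: concentration producing complete growth inhibition.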

Columns and labels:
Assay in all cases: DTP human tumour cell line panel, 48 h
[1] = tested on: CAKI-1 renal
[2] = tested on: KM12 colon
[3] = tested on: HOP-92 NSCLC
[4] = tested on: OVCAR-5 ovarian
[5] = tested on: HCT-15 colon
[6] = tested on: DLD-1 colon
[7] = tested on: M14 melanoma
[8] = tested on: SK-OV-3 ovarian
[9] = tested on: SNB-78 CNS
[10] = tested on: NCI/ADR-RES ovarian

Compound | TGI [1] [µM] | TGI [2] [µM] | TGI [3] [µM] | TGI [4] [µM] | TGI [5] [µM] | TGI [6] [µM] | TGI [7] [µM] | TGI [8] [µM] | TGI [9] [µM] | GI50 [1] [µM] | GI50 [2] [µM] | GI50 [3] [µM] | GI50 [4] [µM] | GI50 [5] [µM] | GI50 [7] [µM] | GI50 [8] [µM] | GI50 [10] [µM] | TGI [10] [µM]
CCOC(=O)CCn1ncc(Cl)c(Cl)c1=O | 10.8 | 20 | 26.2 | 32.1 | 4.69 | 21.5 | 14.5 | 42.5 | 22.1 | – | – | – | – | – | – | – | – | –
CN(C)c1nc2ccccc2c2c1c1c(n2Cc2ccccc2)-c2ccccc2C1=O | > 100 | > 100 | > 100 | > 100 | > 100 | – | > 100 | > 100 | – | > 100 | > 100 | 13 | > 100 | > 100 | > 100 | > 100 | > 100 | > 100
Cc1nc2ccc(NC(=O)CCNC(=O)CCCc3ccc(CC(C(=O)O)C(=O)O)cc3)cc2s1 | > 100 | > 100 | > 100 | > 100 | > 100 | – | > 100 | > 100 | – | > 100 | > 100 | > 100 | > 100 | > 100 | > 100 | > 100 | > 100 | > 100
Cn1cc(-c2ccc3nnc(Sc4ccc5ncccc5c4)n3n2)cn1 | > 100 | > 100 | > 71.4 | > 100 | > 100 | – | > 100 | > 100 | – | 40.8 | > 100 | 7.07 | 61.9 | > 100 | > 100 | > 73.9 | > 100 | > 100
CC1CCSC(N(C(=O)N(C)c2ccccc2)c2ccccc2)=N1 (stereo not drawn) | > 100 | > 100 | – | > 100 | > 100 | > 100 | > 100 | > 100 | > 100 | – | – | – | – | – | – | – | – | –
Cc1nc(Nc2cccnc2)sc1C(=O)/C=C/c1ccc(Cl)cc1 | 15.1 | 4.19 | 15.2 | 31.2 | 4.03 | – | 19.5 | > 100 | – | 3.15 | 1.98 | 3.23 | 2.87 | 1.59 | 3.13 | 3.88 | 3.03 | 11.1
c1ccc2c(-c3nc(-c4c[nH]c5ccncc45)cs3)c[nH]c2c1 | 5.74 | 4.4 | 3.28 | 6.63 | 3.4 | – | 3.46 | 8.29 | – | 1.98 | 2.02 | 1.44 | 2.59 | 1.56 | 1.7 | 2.62 | 3.2 | 15.5
COc1ccc(/C(Cl)=C/c2cc(OC)ccc2OC)cc1 | – | – | > 100 | – | > 100 | > 100 | > 100 | > 100 | > 100 | – | – | – | – | – | – | – | – | –
COc1cc2c(cc1O)CC1c3c(cc(O)c(OC)c3-2)CCN1C (stereo not drawn) | > 100 | > 100 | > 100 | > 100 | > 100 | – | > 100 | > 100 | – | – | – | – | – | – | – | – | – | > 100
O=c1cc(N/N=C/c2ccc(F)cc2)c2cc(Cl)ccc2[nH]1 | > 100 | > 100 | 45.9 | 58.9 | > 100 | – | > 100 | 83.4 | – | 23.5 | 22 | 14 | 21.6 | 19.9 | 10.2 | 20.1 | 23.5 | > 100
NNC(=O)C(=O)N/N=C1\CCC(=O)CC1C(=O)CCC(=O)Nc1ccc(Cl)cc1 (stereo not drawn) | > 100 | > 100 | – | > 100 | > 100 | > 100 | > 100 | > 100 | > 100 | – | – | – | – | – | – | – | – | –
COc1ccc(-c2nc(-c3nc4ccc(F)cc4[nH]3)c3ccccn23)cc1 | > 100 | > 100 | 43.8 | > 100 | > 100 | – | > 100 | 37.3 | – | 12.1 | 7.03 | 3.67 | 45.2 | 33.6 | 12.9 | 10.3 | 6.5 | 36.5
Cc1cc(N(CCC#N)CCC#N)ccc1N=Nc1ccc(Br)cc1 | > 51.4 | > 100 | – | > 100 | > 100 | > 100 | > 66 | 11.7 | > 65.8 | – | – | – | – | – | – | – | – | –
C1CC2CN(CCCN3CCOCC3)C(C1)O2 (stereo not drawn) | > 100 | > 100 | > 100 | > 100 | > 100 | – | > 100 | > 100 | – | – | – | – | – | – | – | – | – | > 100
CC(C)CCCC(C)[C@H]1CCC2[C@@H]3CCC4Nc5c(cnn5-c5ccccc5)C[C@]4(C)C3CC[C@@]21C (stereo partly drawn) | 78.4 | > 100 | – | > 100 | > 100 | > 100 | > 100 | > 100 | > 100 | – | – | – | – | – | – | – | – | –
Cc1cc(O)c(C2=NN(c3ccc(S(N)(=O)=O)cc3)C(c3ccc(Cl)cc3)C2)c(C)c1Cl (stereo not drawn) | 18.2 | 10.6 | 17.6 | 24.7 | 20.8 | – | 10.4 | 20.6 | – | 4.38 | 2.8 | 3.74 | 12.3 | 5.48 | 2.62 | 7.75 | 4.63 | 17
Cc1ccc(S(=O)(=O)c2ccccc2[N+](=O)[O-])cc1 | > 100 | > 100 | – | > 100 | > 100 | > 100 | > 100 | > 100 | > 100 | – | – | – | – | – | – | – | – | –
C[Si](C)(C)/C=C\CCO | – | > 100 | > 100 | > 100 | > 100 | > 100 | > 100 | > 100 | > 100 | – | – | – | – | – | – | – | – | –
C1CC[N-]CC1.CC(=N\O)/C(C)=N/O.CC(=N\O)/C(C)=N/O.OC1[CH-]CCCC1.[Co+2] | > 100 | > 100 | 93.1 | > 100 | > 100 | – | > 100 | > 100 | – | 34.7 | > 100 | 22.2 | > 100 | 65.5 | 52.8 | > 100 | > 100 | > 100
